Source: ChEMBL document CHEMBL5727528, “Benzenesulfonamide compounds, method for synthesizing same, and use thereof in medicine and cosmetics” (2020)

Target: T1, Interstitial collagenase (Homo sapiens, UniProt P03956)
T1 sequence (P03956 whole entry): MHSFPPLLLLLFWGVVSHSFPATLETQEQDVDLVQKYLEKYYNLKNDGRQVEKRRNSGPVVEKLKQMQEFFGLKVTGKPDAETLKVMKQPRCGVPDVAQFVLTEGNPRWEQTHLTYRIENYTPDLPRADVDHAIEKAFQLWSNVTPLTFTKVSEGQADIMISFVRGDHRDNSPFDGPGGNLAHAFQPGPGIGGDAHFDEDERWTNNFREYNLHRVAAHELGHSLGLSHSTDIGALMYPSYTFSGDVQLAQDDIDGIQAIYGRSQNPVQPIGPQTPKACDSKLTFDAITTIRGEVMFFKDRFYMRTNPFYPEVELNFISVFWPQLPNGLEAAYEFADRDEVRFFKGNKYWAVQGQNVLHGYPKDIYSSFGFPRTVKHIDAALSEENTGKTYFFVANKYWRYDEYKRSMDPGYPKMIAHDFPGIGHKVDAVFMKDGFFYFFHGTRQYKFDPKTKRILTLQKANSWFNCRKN

COCCN(C1(C(=O)NO)CN(C(=O)C(C)C)C1)S(=O)(=O)c1ccc(OCc2cc(C)nc3ccccc23)cc1
IC50: > 10 µM
